Reference: patent US12139487B2, “Compounds and uses thereof” (Foghorn Therapeutics Inc., priority 2022, dated 2024)
pIC50: −log10 of the molar value.

Experiments:
[1] = target: T1, BRM (Homo sapiens, UniProt P51531); experiment: ATPase catalytic activity assay (ADP-Glo), BRM; assay type: biochemical; conditions: Table 10; for Ratio (BRG1 IC50 (μM) divided by BRM IC50 (μM)): ATPase assay, selectivity BRG1/BRM; for pIC50: ATPase catalytic activity assay (ADP-Glo)
T1 construct: made in house; host or cells: High Five insect cells
T1 sequence (P51531 whole entry): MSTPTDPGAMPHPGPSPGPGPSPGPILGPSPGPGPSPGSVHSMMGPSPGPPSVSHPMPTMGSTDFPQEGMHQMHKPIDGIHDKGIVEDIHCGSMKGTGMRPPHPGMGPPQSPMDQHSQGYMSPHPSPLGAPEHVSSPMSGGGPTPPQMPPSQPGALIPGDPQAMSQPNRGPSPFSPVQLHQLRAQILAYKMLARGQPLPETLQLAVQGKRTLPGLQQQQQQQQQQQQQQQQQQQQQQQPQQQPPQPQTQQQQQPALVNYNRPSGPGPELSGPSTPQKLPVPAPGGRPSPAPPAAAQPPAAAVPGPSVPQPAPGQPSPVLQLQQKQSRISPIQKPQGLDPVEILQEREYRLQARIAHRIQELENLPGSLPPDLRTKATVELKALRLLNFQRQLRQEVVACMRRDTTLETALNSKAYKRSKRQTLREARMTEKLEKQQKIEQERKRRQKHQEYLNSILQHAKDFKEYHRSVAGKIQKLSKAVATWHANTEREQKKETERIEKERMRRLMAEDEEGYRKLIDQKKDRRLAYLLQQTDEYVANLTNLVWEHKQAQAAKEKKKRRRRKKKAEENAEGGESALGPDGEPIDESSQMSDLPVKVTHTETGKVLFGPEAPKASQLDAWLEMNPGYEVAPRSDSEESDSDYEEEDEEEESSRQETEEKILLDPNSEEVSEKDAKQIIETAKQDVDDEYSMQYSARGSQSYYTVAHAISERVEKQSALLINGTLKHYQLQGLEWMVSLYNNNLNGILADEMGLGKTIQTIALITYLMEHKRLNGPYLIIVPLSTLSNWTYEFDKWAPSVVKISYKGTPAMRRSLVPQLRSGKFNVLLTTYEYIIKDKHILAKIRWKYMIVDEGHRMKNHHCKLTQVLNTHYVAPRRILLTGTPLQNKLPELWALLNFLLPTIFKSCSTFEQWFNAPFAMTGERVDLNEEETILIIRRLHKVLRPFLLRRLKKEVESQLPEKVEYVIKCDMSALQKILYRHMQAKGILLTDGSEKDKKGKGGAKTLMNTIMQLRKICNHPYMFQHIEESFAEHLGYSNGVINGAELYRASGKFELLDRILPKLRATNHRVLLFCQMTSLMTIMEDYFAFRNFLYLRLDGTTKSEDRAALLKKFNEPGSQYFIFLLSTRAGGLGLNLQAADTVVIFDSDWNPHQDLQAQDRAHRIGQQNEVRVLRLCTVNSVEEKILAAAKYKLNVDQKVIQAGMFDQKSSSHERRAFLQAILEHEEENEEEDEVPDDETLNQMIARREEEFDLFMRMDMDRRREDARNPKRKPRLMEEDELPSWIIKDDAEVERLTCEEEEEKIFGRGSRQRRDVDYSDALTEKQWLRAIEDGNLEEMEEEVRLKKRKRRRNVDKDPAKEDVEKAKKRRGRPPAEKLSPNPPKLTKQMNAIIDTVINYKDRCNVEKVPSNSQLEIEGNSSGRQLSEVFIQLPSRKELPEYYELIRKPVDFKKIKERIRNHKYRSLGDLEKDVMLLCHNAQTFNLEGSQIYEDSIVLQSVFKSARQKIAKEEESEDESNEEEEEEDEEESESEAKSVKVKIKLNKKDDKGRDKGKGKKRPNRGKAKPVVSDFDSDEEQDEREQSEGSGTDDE
In short: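 ADP-Glo luminescence measures ADP produced by BRM ATPase (30 nM) during 1 h at room temperature. ATP is 400 μM, with 20 nM salmon sperm DNA as cofactor. Buffer: 20 mM Tris pH 8, 20 mM MgCl2, 50 mM NaCl, 0.1% Tween-20, 1 mM DTT.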

[2] = target: T2, BRG-1 (Homo sapiens, UniProt P51532); experiment: ATPase catalytic activity assay (ADP-Glo), BRG-1; assay type: biochemical; conditions: Table 10, read-out: BRG1 IC50
T2 construct: made in house; host or cells: High Five insect cells
T2 sequence (P51532 whole entry): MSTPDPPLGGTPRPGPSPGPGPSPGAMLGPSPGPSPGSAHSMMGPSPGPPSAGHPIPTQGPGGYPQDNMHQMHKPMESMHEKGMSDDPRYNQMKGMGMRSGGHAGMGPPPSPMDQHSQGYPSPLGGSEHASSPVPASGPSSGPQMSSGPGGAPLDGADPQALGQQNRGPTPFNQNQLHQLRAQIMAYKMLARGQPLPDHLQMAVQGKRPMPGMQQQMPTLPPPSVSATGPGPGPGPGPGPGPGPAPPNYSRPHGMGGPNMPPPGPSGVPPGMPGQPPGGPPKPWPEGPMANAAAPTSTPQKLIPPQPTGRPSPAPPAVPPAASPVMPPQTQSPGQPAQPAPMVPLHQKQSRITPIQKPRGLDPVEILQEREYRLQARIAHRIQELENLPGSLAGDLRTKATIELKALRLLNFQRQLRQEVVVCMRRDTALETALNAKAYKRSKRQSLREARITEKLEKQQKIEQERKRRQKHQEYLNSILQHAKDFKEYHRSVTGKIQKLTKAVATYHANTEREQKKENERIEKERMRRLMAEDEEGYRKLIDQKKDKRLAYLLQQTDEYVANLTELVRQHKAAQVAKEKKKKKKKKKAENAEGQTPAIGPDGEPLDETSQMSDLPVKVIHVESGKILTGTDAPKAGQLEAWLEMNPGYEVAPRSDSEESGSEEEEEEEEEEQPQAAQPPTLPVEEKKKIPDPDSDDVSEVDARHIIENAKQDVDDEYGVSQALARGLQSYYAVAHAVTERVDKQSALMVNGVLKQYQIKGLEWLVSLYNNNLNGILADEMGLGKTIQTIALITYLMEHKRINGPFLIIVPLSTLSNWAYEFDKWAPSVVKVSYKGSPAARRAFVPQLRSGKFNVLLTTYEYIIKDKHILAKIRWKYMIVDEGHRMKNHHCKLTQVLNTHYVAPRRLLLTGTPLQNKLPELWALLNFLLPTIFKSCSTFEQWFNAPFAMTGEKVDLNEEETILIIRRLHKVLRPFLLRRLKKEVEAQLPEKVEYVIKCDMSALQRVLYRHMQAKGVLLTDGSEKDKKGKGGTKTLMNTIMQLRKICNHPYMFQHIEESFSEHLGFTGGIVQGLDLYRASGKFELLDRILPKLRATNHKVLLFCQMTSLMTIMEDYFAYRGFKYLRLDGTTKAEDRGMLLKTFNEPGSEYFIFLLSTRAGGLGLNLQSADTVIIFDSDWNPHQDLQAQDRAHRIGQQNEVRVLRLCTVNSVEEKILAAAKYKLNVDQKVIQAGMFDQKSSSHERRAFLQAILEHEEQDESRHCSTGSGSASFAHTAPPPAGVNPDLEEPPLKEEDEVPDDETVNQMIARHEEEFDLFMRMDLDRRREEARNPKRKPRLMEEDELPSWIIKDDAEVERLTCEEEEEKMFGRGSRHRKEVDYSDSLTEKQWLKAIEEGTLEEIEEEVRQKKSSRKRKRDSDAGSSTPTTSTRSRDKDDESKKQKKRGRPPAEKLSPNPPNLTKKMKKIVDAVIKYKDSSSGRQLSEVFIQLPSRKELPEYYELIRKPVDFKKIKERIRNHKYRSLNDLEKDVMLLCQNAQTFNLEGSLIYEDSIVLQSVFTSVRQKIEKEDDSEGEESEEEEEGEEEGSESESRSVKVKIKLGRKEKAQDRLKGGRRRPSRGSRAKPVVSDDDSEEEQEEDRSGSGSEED
In short: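 Once the ATPase reaction finished, leftover ATP was depleted over 40 minutes at room temperature. Generated ADP was next turned back into ATP during a 60-minute room-temperature step. Luciferase-derived light was then measured.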

## O=C(NCc1cc2nc(N3CCCc4sc(C5CC5)nc43)ccc2cn1)c1cc(F)c2c(c1)S(=O)(=O)[C@@H](F)CCO2 [Compound 178]
[1]
  Ratio (BRG1 IC50 (μM) divided by BRM IC50 (μM)): 34.29
  pIC50: 8.25
[2]
  pIC50: 6.68

## CCOCc1ccnc2c1OCCN2c1ccc2cnc(CNC(=O)c3cc(F)c4c(c3)S(=O)(=O)[C@@H](F)CCO4)cc2n1 [Compound 108]
[1]
  Ratio (BRG1 IC50 (μM) divided by BRM IC50 (μM)): 16.69
  pIC50: 8.41
[2]
  pIC50: 7.19

## CC(C)c1cnc2c(c1)OCCN2c1ccc2cnc(CNC(=O)c3cc(F)c4c(c3)S(=O)(=O)[C@@H](F)CCO4)cc2n1 [Compound 157]
[1]
  Ratio (BRG1 IC50 (μM) divided by BRM IC50 (μM)): 18.45
  pIC50: 8.29
[2]
  pIC50: 7.01

## CCc1cnc2c(c1)OCCN2c1ccc2cnc(CNC(=O)c3cc(F)c4c(c3)S(=O)(=O)[C@@H](F)CCO4)cc2n1 [Compound 82]
[1]
  Ratio (BRG1 IC50 (μM) divided by BRM IC50 (μM)): 22.96
  pIC50: 8.51
[2]
  pIC50: 7.17

## C[C@H]1N(c2cnc3c(c2)OCCN3c2ccc3cnc(CNC(=O)c4cc(F)c5c(c4)S(=O)(=O)[C@@H](F)CCO5)cc3n2)CC1(F)F [Compound 269]
[1]
  Ratio (BRG1 IC50 (μM) divided by BRM IC50 (μM)): 11.77
  pIC50: 8.05
[2]
  pIC50: 6.96

## Cc1cnc2c(c1)OCCN2c1ccc2cnc(CNC(=O)c3cc(F)c4c(c3)S(=O)(=O)[C@@H](F)CCO4)cc2n1 [Compound 51]
[1]
  Ratio (BRG1 IC50 (μM) divided by BRM IC50 (μM)): 18.72
  pIC50: 8.60
[2]
  pIC50: 7.38

## COc1nc([C@@H](F)CF)ccc1-c1ccc2cnc(CNC(=O)c3cc(F)c4c(c3)S(=O)(=O)[C@@H](F)CCO4)cc2n1 [Compound 202]
[1]
  Ratio (BRG1 IC50 (μM) divided by BRM IC50 (μM)): 15.85
  pIC50: 8.21
[2]
  pIC50: 6.90

## CCn1ccc2c(-c3ccc4cnc(CNC(=O)c5cc(F)c6c(c5)S(=O)(=O)[C@@H](F)CCO6)cc4n3)ccnc21 [Compound 256]
[1]
  Ratio (BRG1 IC50 (μM) divided by BRM IC50 (μM)): 13.83
  pIC50: 8.09
[2]
  pIC50: 6.95

## O=C(NCc1cc2nc(N3CCOc4cc(N5CC6CC6C5)cnc43)ccc2cn1)c1cc(F)c2c(c1)S(=O)(=O)[C@@H](F)CCO2 (stereo partly drawn) [Compound 276]
[1]
  Ratio (BRG1 IC50 (μM) divided by BRM IC50 (μM)): 14.41
  pIC50: 8.04
[2]
  pIC50: 6.88

## CCOc1ccnc2c1OCCN2c1ccc2cnc(CNC(=O)c3cc(F)c4c(c3)S(=O)(=O)[C@@H](F)COC4)cc2n1 [Compound 11]
[1]
  Ratio (BRG1 IC50 (μM) divided by BRM IC50 (μM)): 9.50
  pIC50: 8.85
[2]
  pIC50: 7.85

## O=C(NCc1cc2nc(N3CCOc4cc(F)c(C(F)F)nc43)ccc2cn1)c1cc(F)c2c(c1)S(=O)(=O)[C@@H](F)CCO2 [Compound 304]
[1]
  Ratio (BRG1 IC50 (μM) divided by BRM IC50 (μM)): 15.65
  pIC50: 8.00
[2]
  pIC50: 6.80

## O=C(NCc1cc2cc(-c3cccc(C4CC4)n3)ccc2cn1)c1cc(F)c2c(c1)S(=O)(=O)[C@@H](F)COC2 [Compound 118]
[1]
  Ratio (BRG1 IC50 (μM) divided by BRM IC50 (μM)): 19.47
  pIC50: 8.40
[2]
  pIC50: 7.20

## O=C(NCc1cc2nc(N3CCOc4cc(C5(C(F)F)CC5)cnc43)ccc2cn1)c1cc(F)c2c(c1)S(=O)(=O)[C@@H](F)COC2 [Compound 25]
[1]
  Ratio (BRG1 IC50 (μM) divided by BRM IC50 (μM)): 21.51
  pIC50: 8.77
[2]
  pIC50: 7.36

## COc1nc(C(F)F)ccc1-c1ccc2cnc([C@H](C)NC(=O)c3ccc4c(c3)S(=O)(=O)[C@@H](F)CCOC4)cc2n1 [Compound 122]
[1]
  Ratio (BRG1 IC50 (μM) divided by BRM IC50 (μM)): 10.93
  pIC50: 8.38
[2]
  pIC50: 7.34

## O=C(NCc1cc2nc(N3CCOc4cc(N5CC[C@H](F)[C@@H](F)C5)cnc43)ccc2cn1)c1cc(Cl)c2c(c1)S(=O)(=O)[C@@H](F)COC2 [Compound 112]
[1]
  Ratio (BRG1 IC50 (μM) divided by BRM IC50 (μM)): 14.50
  pIC50: 8.41
[2]
  pIC50: 7.24

## O=C(NCc1cc2nc(N3CCOc4cc([C@@H]5CC5(F)F)cnc43)ccc2cn1)c1cc(F)c2c(c1)S(=O)(=O)[C@@H](F)CCO2 [Compound 87]
[1]
  Ratio (BRG1 IC50 (μM) divided by BRM IC50 (μM)): 20.66
  pIC50: 8.49
[2]
  pIC50: 7.11

## CO[C@H]1CN(c2cccc(-c3ccc4cnc(CNC(=O)c5cc(F)c6c(c5)S(=O)(=O)[C@@H](F)CCO6)cc4n3)n2)C[C@@H]1F [Compound 97]
[1]
  Ratio (BRG1 IC50 (μM) divided by BRM IC50 (μM)): 17.66
  pIC50: 8.47
[2]
  pIC50: 7.18

## C[C@@H]1CN(c2cccc(-c3ccc4cnc(CNC(=O)c5cc(F)c6c(c5)S(=O)(=O)[C@H](F)C[C@H](C)O6)cc4n3)n2)C[C@H](C)O1 [Compound 34, (2S,4S)—N-((2-(6-((2S,6R)-2,6-dimethylmorpholino)pyridin-2-yl)-1,6-naphthyridin-7-yl)methyl)-4,9-difluoro-2-methyl-3,4-dihydro-2H-benzo[b][1,4]oxathiepine-7-carboxamide 5,5-dioxide]
[1]
  Ratio (BRG1 IC50 (μM) divided by BRM IC50 (μM)): 12.17
  pIC50: 6.92
[2]
  pIC50: 5.83

## CO[C@H]1CN(c2cccc(-c3ccc4cnc(CNC(=O)c5cc(F)c6c(c5)S(=O)(=O)[C@@H](F)COC6)cc4n3)n2)C[C@@H]1F [Compound 54]
[1]
  Ratio (BRG1 IC50 (μM) divided by BRM IC50 (μM)): 9.72
  pIC50: 8.60
[2]
  pIC50: 7.55

## COCc1cc2c(c(F)c1Cl)N(c1ccc3cnc(CNC(=O)c4cc(F)c5c(c4)S(=O)(=O)[C@@H](F)CCO5)cc3n1)CCO2 [Compound 10]
[1]
  Ratio (BRG1 IC50 (μM) divided by BRM IC50 (μM)): 11.90
  pIC50: 8.89
[2]
  pIC50: 7.80

## C[C@H]1C[C@@H]1c1ccc2c(n1)N(c1ccc3cnc(CNC(=O)c4cc(F)c5c(c4)S(=O)(=O)[C@@H](F)CCO5)cc3n1)CCO2 [Compound 20]
[1]
  Ratio (BRG1 IC50 (μM) divided by BRM IC50 (μM)): 26.66
  pIC50: 8.80
[2]
  pIC50: 7.35

## O=C(NCc1cc2nc(N3CCOc4cc(C5CC5)cnc43)ccc2cn1)c1cc(Cl)c2c(c1)S(=O)(=O)[C@@H](F)COC2 [Compound 61]
[1]
  Ratio (BRG1 IC50 (μM) divided by BRM IC50 (μM)): 21.08
  pIC50: 8.59
[2]
  pIC50: 7.31

## O=C(NCc1cc2nc(N3CCOc4ccc([C@H](F)CF)nc43)ccc2cn1)c1cc(F)c2c(c1)S(=O)(=O)[C@@H](F)COC2 [Compound 62]
[1]
  Ratio (BRG1 IC50 (μM) divided by BRM IC50 (μM)): 28.84
  pIC50: 8.59
[2]
  pIC50: 7.10

## COc1ccc(-c2ccc3cnc(CNC(=O)c4cc(Cl)c5c(c4)S(=O)(=O)[C@@H](F)COC5)cc3n2)nc1[C@@H]1CC1(F)F [Compound 294]
[1]
  Ratio (BRG1 IC50 (μM) divided by BRM IC50 (μM)): 35.16
  pIC50: 8.01
[2]
  pIC50: 6.46

## COc1nc([C@@H](C)C(F)F)ccc1-c1ccc2cnc(CNC(=O)c3cc(F)c4c(c3)S(=O)(=O)[C@@H](F)CCO4)cc2n1 [Compound 328]
[1]
  Ratio (BRG1 IC50 (μM) divided by BRM IC50 (μM)): 29.97
  pIC50: 7.62
[2]
  pIC50: 6.14

## CO[C@H]1CN(c2cccc(-c3ccc4cnc(CNC(=O)c5cc(F)c6c(c5)S(=O)(=O)[C@@H](F)CCO6)cc4n3)n2)C[C@@H]1C [Compound 67]
[1]
  Ratio (BRG1 IC50 (μM) divided by BRM IC50 (μM)): 17.37
  pIC50: 8.57
[2]
  pIC50: 7.34

## C[C@@H]1CN(c2cccc(/C=C/c3ccnc(CNC(=O)c4cc(F)c5c(c4)S(=O)(=O)[C@@H](F)CCO5)c3)n2)C[C@H](C)O1 [Compound 52, (R)—N-((4-((E)-2-(6-((2S,6R)-2,6-dimethylmorpholino)pyridin-2-yl)vinyl)pyridin-2-yl)methyl)-4,9-difluoro-3,4-dihydro-2H-benzo[b][1,4]oxathiepine-7-carboxamide 5,5-dioxide]
[1]
  Ratio (BRG1 IC50 (μM) divided by BRM IC50 (μM)): 22.78
  pIC50: 8.60
[2]
  pIC50: 7.25

## COc1nc(C(F)F)ccc1-c1ccc2cnc(CNC(=O)c3cc(Cl)c4c(c3)S(=O)(=O)[C@@H](F)COC4)cc2n1 [Compound 221]
[1]
  Ratio (BRG1 IC50 (μM) divided by BRM IC50 (μM)): 27.18
  pIC50: 8.16
[2]
  pIC50: 6.75

## C[C@@H]1CN(c2cccc(-c3ccc4cnc(CNC(=O)c5ccc6c(c5)S(=O)(=O)[C@H](F)CO[C@H]6C)cc4n3)n2)C[C@H](C)O1 [Compound 200]
[1]
  Ratio (BRG1 IC50 (μM) divided by BRM IC50 (μM)): 16.77
  pIC50: 8.21
[2]
  pIC50: 7.00

## COCc1ccnc2c1OCCN2c1ccc2cnc(CNC(=O)c3cc(F)c4c(c3)S(=O)(=O)[C@@H](F)CCO4)cc2n1 [Compound 147]
[1]
  Ratio (BRG1 IC50 (μM) divided by BRM IC50 (μM)): 11.98
  pIC50: 8.32
[2]
  pIC50: 7.24

## C[C@@H]1CCN1c1cnc2c(c1)OCCN2c1ccc2cnc(CNC(=O)c3cc(Cl)c4c(c3)S(=O)(=O)[C@@H](F)COC4)cc2n1 [Compound 289]
[1]
  Ratio (BRG1 IC50 (μM) divided by BRM IC50 (μM)): 11.49
  pIC50: 8.02
[2]
  pIC50: 6.94

## O=C(NCc1cc2nc(N3CCOc4cc(N5CCC5)cnc43)ccc2cn1)c1ccc2c(c1)S(=O)(=O)[C@@H](F)CCO2 [Compound 187]
[1]
  Ratio (BRG1 IC50 (μM) divided by BRM IC50 (μM)): 13.32
  pIC50: 8.24
[2]
  pIC50: 7.12
